{
  "source": "patent US6242440A",
  "about": "“Synergistic compositions comprising an oxathiazine and a benzothiophene-2-carboxamide-S,S-dioxide” (Janssen Pharmaceutica N.V., priority 1997, dated 2001)",
  "key": {"Aspergillus niger": {"system": "Aspergillus niger", "assay": "poison plate assay, mycelial growth and sporulation", "format": "cell-based", "experimental": "(§1) The efficacy of the active ingredients against mycelial growth and sporulation of Aureobasidium pullulans, Aspergillus niger, Scierophoma entoxylina, Trichodenna viride, was determined in the poison plate assay. The required concentrations of the fungicide(s) were obtained by diluting the active ingredients (I), (II) or the combination of (I) and (II) in dimethyl sulfoxide (DMSO) at 800 times the final test concentration. The stock solutions in DMSO were pipetted into Petri-dishes. Malt extract agar (3%) was added aseptically and uniform distribution was obtained by shaking. Each plate was spot inoculated with a spore or mycelial suspension. After incubation at 22° C. and 70% relative humidity for a period long enough to allow complete growth of controls, diameters of colonies were measured. Relative activities were calculated by taking the absence of fungal growth (diameter 0 mm) as 100%. From the activity of the active ingredients alone, the expected activities E were calculated by using the so-called formula of Colby: (Colby, S. R. Weeds 1967, 15: 20-22), [formula]\n(§2) wherein X and Y express the relative activities obtained for each of the active ingredients. A synergistic effect can be acknowledged if the found activity exceeds calculated activity.\n(§3) Equal efficacy was observed whenever complete inhibition of fungal growth occurred by one of the active ingredients (I) or (II) alone. The compound of formula (I) used in the experiment was 3-benzo[b]-thien-2-yl)-5,6-dihydro-1,4,2-oxathiazine 4-oxide, i.e. compound (1). The compound of formula (II) used in the experiment was N-cyclohexyl-benzothiophene-2-carboxamide-S,S-dioxide, i.e. compound (2)."}, "Aureobasidium pullulans": {"system": "Aureobasidium pullulans", "assay": "poison plate assay, mycelial growth and sporulation", "format": "cell-based", "experimental": "as §1, §2, §3"}, "Sclerophoma entoxylina": {"system": "Sclerophoma entoxylina", "assay": "poison plate assay, mycelial growth and sporulation", "format": "cell-based", "experimental": "as §1, §2, §3"}, "Trichoderma viride": {"system": "Trichoderma viride", "assay": "poison plate assay, mycelial growth and sporulation", "format": "cell-based", "experimental": "as §1, §2, §3"}, "Aureobasidium": {"system": "Aureobasidium", "assay": "wood stick test (Scots Pine)", "format": "cell-based, Aureobasidium pullulans", "conditions": "read-out: measured (relative) activity %", "experimental": "(§4) Oven-dried wood sticks (50×12×2 mm) of Scots Pine (Pinus sylvestris) were dipped during 3 hours in a methanol solution comprising a compound of formula (I), a compound of formula (II), or a combination of a compound of formula (I) and a compound of formula (II), and allowed to dry overnight in a sterile laminar air flow. In each Petri dish one stick was placed on culture medium, PDA PS (Potato Dextrose Agar containing 60 mg penicillin and 200 mg streptomycin), previously seeded with inoculum. Two drops of fungal or spore suspension were pipetted on the upper surface of the stick The Petri dishes were incubated at 22° C. and 70% relative humidity. The test was evaluated after sufficient growth of the fungus on the control sticks. The following score system was used:\n(§5) 0: sticks free of fungal growth\n(§6) 1: traces of growth on the stick\n(§7) 2: slight growth (5 to 25% of the surface covered)\n(§8) 3 : moderate growth (25 to 50% of the surface covered)\n(§9) 4: vigorous to maximum growth (more tha 50% covered)\n(§10) To calculate synergism results were converted to the next artificial activities:\n(§11) Yhe expected activities E were calculated by using the so-called formula of Colby: (Colby, S. R. Weeds 1967, 15: 20-22), [formula]\nas §2\n(§12) The compound of formula (I) used in the experiment was 3-benzo[b]-thien-2-yl)-5,6-dihydro-1,4,2-oxathiazine 4-oxide, i.e. compound (1). The compound of formula (II) used in the experiment was N-cyclohexyl-benzothiophene-2-carboxamide-S,S-dioxide, i.e. compound (2)."}, "Aspergillus": {"system": "Aspergillus", "assay": "wood stick test (Scots Pine)", "format": "cell-based, Aspergillus niger", "experimental": "as §4, §5, §6, §7, §8, §9, §10, §11, §2, §12"}, "Sclerophoma": {"system": "Sclerophoma", "assay": "wood stick test (Scots Pine)", "format": "cell-based, Sclerophoma entoxylina", "experimental": "as §4, §5, §6, §7, §8, §9, §10, §11, §2, §12"}},
  "data": [
    {"smiles": "[O-][S+]1CCON=C1c1cc2ccccc2s1", "note": "(stereo not shown) [compound (1), 3-(benzo[b]thien-2-yl)-5,6-dihydro-1,4,2-oxathiazine, 4-oxide]", "values": [
      {"measurement": "activity measured", "setting": "Aspergillus niger; Exp 1, 5 days, (1) 0.62 mg/l", "value": 5, "unit": "%"},
      {"measurement": "growth", "setting": "Aspergillus niger; Exp 1, 5 days, (1) 0.62 mg/l", "value": 42, "unit": "mm"},
      {"measurement": "activity measured", "setting": "Aspergillus niger; Exp 1, 5 days, (1) 1.25 mg/l", "value": 14, "unit": "%"},
      {"measurement": "growth", "setting": "Aspergillus niger; Exp 1, 5 days, (1) 1.25 mg/l", "value": 38, "unit": "mm"},
      {"measurement": "activity measured", "setting": "Aspergillus niger; Exp 1, 5 days, (1) 2.50 mg/l", "value": 39, "unit": "%"},
      {"measurement": "growth", "setting": "Aspergillus niger; Exp 1, 5 days, (1) 2.50 mg/l", "value": 27, "unit": "mm"},
      {"measurement": "activity measured", "setting": "Aspergillus niger; Exp 1, 5 days, (1) 5.00 mg/l", "value": 100, "unit": "%"},
      {"measurement": "growth", "setting": "Aspergillus niger; Exp 1, 5 days, (1) 5.00 mg/l", "value": 0, "unit": "mm"},
      {"measurement": "activity measured", "setting": "Aspergillus niger; Exp 2, 7 days, (1) 1.25 mg/l", "value": 16, "unit": "%"},
      {"measurement": "growth", "setting": "Aspergillus niger; Exp 2, 7 days, (1) 1.25 mg/l", "value": 38, "unit": "mm"},
      {"measurement": "activity measured", "setting": "Aspergillus niger; Exp 2, 7 days, (1) 2.50 mg/l", "value": 44, "unit": "%"},
      {"measurement": "growth", "setting": "Aspergillus niger; Exp 2, 7 days, (1) 2.50 mg/l", "value": 25, "unit": "mm"},
      {"measurement": "activity measured", "setting": "Aureobasidium pullulans; Exp 1, 5 days, (1) 0.62 mg/l", "value": 13, "unit": "%"},
      {"measurement": "growth", "setting": "Aureobasidium pullulans; Exp 1, 5 days, (1) 0.62 mg/l", "value": 33, "unit": "mm"},
      {"measurement": "activity measured", "setting": "Aureobasidium pullulans; Exp 1, 5 days, (1) 1.25 mg/l", "value": 32, "unit": "%"},
      {"measurement": "growth", "setting": "Aureobasidium pullulans; Exp 1, 5 days, (1) 1.25 mg/l", "value": 26, "unit": "mm"},
      {"measurement": "activity measured", "setting": "Aureobasidium pullulans; Exp 1, 5 days, (1) 2.50 mg/l", "value": 61, "unit": "%"},
      {"measurement": "growth", "setting": "Aureobasidium pullulans; Exp 1, 5 days, (1) 2.50 mg/l", "value": 15, "unit": "mm"},
      {"measurement": "activity measured", "setting": "Aureobasidium pullulans; Exp 1, 5 days, (1) 5.00 mg/l", "value": 87, "unit": "%"},
      {"measurement": "growth", "setting": "Aureobasidium pullulans; Exp 1, 5 days, (1) 5.00 mg/l", "value": 5, "unit": "mm"},
      {"measurement": "activity measured", "setting": "Aureobasidium pullulans; Exp 2, 7 days, (1) 1.25 mg/l", "value": 8, "unit": "%"},
      {"measurement": "growth", "setting": "Aureobasidium pullulans; Exp 2, 7 days, (1) 1.25 mg/l", "value": 44, "unit": "mm"},
      {"measurement": "activity measured", "setting": "Aureobasidium pullulans; Exp 2, 7 days, (1) 2.50 mg/l", "value": 21, "unit": "%"},
      {"measurement": "growth", "setting": "Aureobasidium pullulans; Exp 2, 7 days, (1) 2.50 mg/l", "value": 38, "unit": "mm"},
      {"measurement": "activity measured", "setting": "Sclerophoma entoxylina; Exp 1, 5 days, (1) 0.62 mg/l", "value": 2, "unit": "%"},
      {"measurement": "growth", "setting": "Sclerophoma entoxylina; Exp 1, 5 days, (1) 0.62 mg/l", "value": 42, "unit": "mm"},
      {"measurement": "activity measured", "setting": "Sclerophoma entoxylina; Exp 1, 5 days, (1) 1.25 mg/l", "value": 14, "unit": "%"},
      {"measurement": "growth", "setting": "Sclerophoma entoxylina; Exp 1, 5 days, (1) 1.25 mg/l", "value": 37, "unit": "mm"},
      {"measurement": "activity measured", "setting": "Sclerophoma entoxylina; Exp 1, 5 days, (1) 2.50 mg/l", "value": 37, "unit": "%"},
      {"measurement": "growth", "setting": "Sclerophoma entoxylina; Exp 1, 5 days, (1) 2.50 mg/l", "value": 27, "unit": "mm"},
      {"measurement": "activity measured", "setting": "Sclerophoma entoxylina; Exp 1, 5 days, (1) 5.00 mg/l", "value": 84, "unit": "%"},
      {"measurement": "growth", "setting": "Sclerophoma entoxylina; Exp 1, 5 days, (1) 5.00 mg/l", "value": 7, "unit": "mm"},
      {"measurement": "activity measured", "setting": "Sclerophoma entoxylina; Exp 2, 7 days, (1) 1.25 mg/l", "value": 4, "unit": "%"},
      {"measurement": "growth", "setting": "Sclerophoma entoxylina; Exp 2, 7 days, (1) 1.25 mg/l", "value": 47, "unit": "mm"},
      {"measurement": "activity measured", "setting": "Sclerophoma entoxylina; Exp 2, 7 days, (1) 2.50 mg/l", "value": 18, "unit": "%"},
      {"measurement": "growth", "setting": "Sclerophoma entoxylina; Exp 2, 7 days, (1) 2.50 mg/l", "value": 40, "unit": "mm"},
      {"measurement": "activity measured", "setting": "Trichoderma viride; Exp 1, 5 days, (1) 0.62 mg/l", "value": 0, "unit": "%"},
      {"measurement": "growth", "setting": "Trichoderma viride; Exp 1, 5 days, (1) 0.62 mg/l", "value": 49, "unit": "mm"},
      {"measurement": "activity measured", "setting": "Trichoderma viride; Exp 1, 5 days, (1) 1.25 mg/l", "value": 0, "unit": "%"},
      {"measurement": "growth", "setting": "Trichoderma viride; Exp 1, 5 days, (1) 1.25 mg/l", "value": 49, "unit": "mm"},
      {"measurement": "activity measured", "setting": "Trichoderma viride; Exp 1, 5 days, (1) 2.50 mg/l", "value": 2, "unit": "%"},
      {"measurement": "growth", "setting": "Trichoderma viride; Exp 1, 5 days, (1) 2.50 mg/l", "value": 48, "unit": "mm"},
      {"measurement": "activity measured", "setting": "Trichoderma viride; Exp 1, 5 days, (1) 5.00 mg/l", "value": 29, "unit": "%"},
      {"measurement": "growth", "setting": "Trichoderma viride; Exp 1, 5 days, (1) 5.00 mg/l", "value": 35, "unit": "mm"},
      {"measurement": "activity measured", "setting": "Trichoderma viride; Exp 2, 7 days, (1) 1.25 mg/l", "value": 12, "unit": "%"},
      {"measurement": "growth", "setting": "Trichoderma viride; Exp 2, 7 days, (1) 1.25 mg/l", "value": 43, "unit": "mm"},
      {"measurement": "activity measured", "setting": "Trichoderma viride; Exp 2, 7 days, (1) 2.50 mg/l", "value": 29, "unit": "%"},
      {"measurement": "growth", "setting": "Trichoderma viride; Exp 2, 7 days, (1) 2.50 mg/l", "value": 35, "unit": "mm"},
      {"measurement": "activity at 200 ppm", "setting": "Aureobasidium; (1) 200 ppm", "value": 0, "unit": "%"},
      {"measurement": "activity at 400 ppm", "setting": "Aureobasidium; (1) 400 ppm", "value": 50, "unit": "%"},
      {"measurement": "% overgrown of the sticks", "setting": "Aspergillus; (1) 200 ppm", "value": 100, "unit": "%"},
      {"measurement": "stick test scores", "setting": "Aspergillus; (1) 200 ppm", "value": "4 (vigorous to maximum growth (more tha 50% covered))"},
      {"measurement": "% overgrown of the sticks", "setting": "Aspergillus; (1) 400 ppm", "value": 50, "unit": "%"},
      {"measurement": "stick test scores", "setting": "Aspergillus; (1) 400 ppm", "value": "3 (moderate growth (25 to 50% of the surface covered))"},
      {"measurement": "activity at 400 ppm", "setting": "Aspergillus; Aspergillus, (1) 400 ppm, read-out: measured (relative) activity %", "value": 50, "unit": "%"},
      {"measurement": "% overgrown of the sticks", "setting": "Sclerophoma; (1) 200 ppm", "value": 100, "unit": "%"},
      {"measurement": "stick test scores", "setting": "Sclerophoma; (1) 200 ppm", "value": "4 (vigorous to maximum growth (more tha 50% covered))"},
      {"measurement": "% overgrown of the sticks", "setting": "Sclerophoma; (1) 400 ppm", "value": 50, "unit": "%"},
      {"measurement": "stick test scores", "setting": "Sclerophoma; (1) 400 ppm", "value": "3 (moderate growth (25 to 50% of the surface covered))"},
      {"measurement": "activity at 200 ppm", "setting": "Sclerophoma; Sclerophoma entoxylina, (1) 200 ppm, read-out: measured (relative) activity %", "value": 0, "unit": "%"},
      {"measurement": "activity at 400 ppm", "setting": "Sclerophoma; Sclerophoma entoxylina, (1) 400 ppm, read-out: measured (relative) activity %", "value": 50, "unit": "%"}
    ]}
  ]
}
